Consider 2 compounds from EP4527828A1, “BIPHENYL COMPOUND, PHARMACEUTICAL COMPOSITION, METHOD FOR PREPARING SAME, AND USE THEREOF” (Longivitron (Suzhou) Biotechnology Co., Ltd, priority 2022, dated 2023).

Holding throughout (assay type): binding
Experiment [1] deals with T1, Mouse LAG3 protein (Mus musculus, UniProt Q61790).
T1 sequence (Q61790 24-521): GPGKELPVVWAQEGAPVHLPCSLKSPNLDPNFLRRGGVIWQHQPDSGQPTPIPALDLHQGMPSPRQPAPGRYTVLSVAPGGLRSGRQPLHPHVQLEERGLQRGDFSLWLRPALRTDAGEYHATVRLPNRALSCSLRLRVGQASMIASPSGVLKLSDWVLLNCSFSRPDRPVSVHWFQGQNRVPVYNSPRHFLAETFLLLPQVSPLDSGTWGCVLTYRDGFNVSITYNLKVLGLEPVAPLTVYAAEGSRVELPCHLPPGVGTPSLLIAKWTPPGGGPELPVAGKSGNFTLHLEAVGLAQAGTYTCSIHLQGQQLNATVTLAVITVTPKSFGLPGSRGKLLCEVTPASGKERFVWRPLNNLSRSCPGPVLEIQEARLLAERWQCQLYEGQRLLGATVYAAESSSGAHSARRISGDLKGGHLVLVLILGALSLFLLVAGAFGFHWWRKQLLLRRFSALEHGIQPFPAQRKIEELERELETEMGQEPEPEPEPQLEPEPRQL
Kind of experiment: SPR interaction assay, CM5 chip amino coupling, mouse LAG3. Particulars: for Kd / Rmax / Note / kon / koff: ligand Mouse LAG3 protein; for Note: bound or not bound; for kon: read-out: Ka; for koff: read-out: Kd. The source says: (§1) A surface plasmon is an electromagnetic wave on a metal surface and is generated by the interaction of photons and electrons which are freely vibrated. Surface plasmon resonance (SPR) is an optical phenomenon that occurs on the surfaces of two media, and such a phenomenon can be induced by photons or electrons. When light enters an optically thinner medium from an optically denser medium, the phenomenon of total reflection occurs, and an evanescent wave is generated and enters the optically thinner medium. When the totally reflected evanescent wave meets the plasmon wave on the metal surface, resonance may occur, the energy of the reflected light decreases, and a resonance peak occurs on the energy spectrum of the reflected light. Such a resonance is called surface plasmon resonance. The angle of incidence causing the surface plasmon resonance is called an SPR angle. An SPR biosensor provides a sensitive, non-labeled detection technique for monitoring intermolecular interactions in real time. The sensor detects the change in the SPR angle, and the SPR is related to the refractive index of the metal surface. When an analyte binds to the chip surface, the refractive index of the chip surface changes, thus causing the change in the SPR angle. This is the basic principle for the SPR biosensor to detect intermolecular interactions in real time. During the interaction analysis, the change in the SPR angle is recorded on the sensorgram in real time.
(§2) Through the information query, the theoretical isoelectric point of the LAG3 protein is about 9.82, and the amino coupling method was contemplated to immobilize the protein. Since the main ligands of the LAG3 protein are FGL1 and MHCII proteins, after the LAG3 protein was coupled, the FGL1 protein sampling method was used to verify the protein activity.
(§3) Protein coupling buffer solution: 1.05× PBS-P+; 1.02× PBS-P+
(§4) Interaction buffer solution: 1.0× PBS-P+, 5% DMSO; 1.0× PBS-P+, 2% DMSO
(§5) In this experiment, by using the CM5 chip amino coupling method, the human LAG3 protein was immobilized to the Fc2 or Fc3 channel, and the mouse LAG3 protein was immobilized to the Fc3 or Fc4 channel.
(§6) LAG3 protein coupling conditions were as follows: the concentration was about 25 µg/mL, the system was sodium acetate solution with a pH of 5.5, the chip activation time was 420 s, and the blocking time was 420 s.
(§7) LAG3 protein coupling conditions were as follows: the concentration was about 50 µg/mL, the system was sodium acetate solution with a pH of 4.5, the chip activation time was 420 s, and the blocking time was 420 s.

In experiment [2] the target is T2, Human FGL1 protein (Homo sapiens, UniProt Q08830).
T2 sequence (Q08830 23-312): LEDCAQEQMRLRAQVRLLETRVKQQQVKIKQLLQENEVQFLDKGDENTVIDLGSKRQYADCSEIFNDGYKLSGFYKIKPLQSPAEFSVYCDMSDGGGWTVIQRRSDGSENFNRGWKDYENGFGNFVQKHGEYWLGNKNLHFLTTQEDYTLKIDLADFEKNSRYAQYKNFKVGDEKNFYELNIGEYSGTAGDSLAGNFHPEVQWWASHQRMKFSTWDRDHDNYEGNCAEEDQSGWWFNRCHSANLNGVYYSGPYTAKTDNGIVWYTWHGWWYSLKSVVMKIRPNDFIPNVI
In words: SPR interaction assay, human FGL1. The conditions noted are these: for Note: bound or not bound; for kon: read-out: Ka; for koff: read-out: Kd.
Description: as §1, §3, §4

In experiment [3] the target is T3, Human LAG3 protein (Homo sapiens, UniProt P18627).
T3 sequence (P18627 23-525): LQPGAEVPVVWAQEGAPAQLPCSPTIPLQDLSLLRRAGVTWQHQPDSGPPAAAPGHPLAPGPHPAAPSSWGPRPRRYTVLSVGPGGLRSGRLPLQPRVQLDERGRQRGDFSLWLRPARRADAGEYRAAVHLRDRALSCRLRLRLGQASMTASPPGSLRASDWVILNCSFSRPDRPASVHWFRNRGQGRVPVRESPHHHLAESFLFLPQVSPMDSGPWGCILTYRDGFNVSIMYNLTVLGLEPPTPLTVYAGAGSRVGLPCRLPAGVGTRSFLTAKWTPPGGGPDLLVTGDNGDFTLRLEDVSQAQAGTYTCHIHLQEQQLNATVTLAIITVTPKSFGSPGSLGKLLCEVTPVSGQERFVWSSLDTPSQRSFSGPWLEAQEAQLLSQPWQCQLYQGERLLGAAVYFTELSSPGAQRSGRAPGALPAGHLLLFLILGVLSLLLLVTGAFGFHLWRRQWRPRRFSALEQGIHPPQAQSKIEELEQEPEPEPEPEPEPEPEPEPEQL
Kind of experiment: SPR interaction assay, CM5 chip amino coupling, human LAG3. Particulars: for Rmax / Kd / Note / kon / koff: ligand Human LAG3 protein; for Kd: Compound 9 fitted in steady-state mode; for Note: bound or not bound; for kon: read-out: Ka; for koff: read-out: Kd.
Description: as §1, §2, §3, §4, §5, §6, §7

Where [4] appears, read: SPR, ligand FGL1 protein, read-out: KD.
Where [5] appears, read: text summary of Table 4, read-out: affinities with the new ligand FGL1 of LAG3.

Read-outs that look alike come from different tables or passages of the source.

Consider `CCCCCCOc1ccc2cc1-c1cc(ccc1OCCCCCC)C(=O)CCCCCC2=O` [Compound 4], for which, in experiment [1], the “interaction with the mouse LAG3 protein” value is given as “interacts with the mouse LAG3 protein”, the Kd is 13.2 µM, the Rmax was 5.214 RU and the Note result was “Bound”. In addition, in experiment [1], the kon was 1060 M⁻¹ s⁻¹ and the koff stood at 0.014 s⁻¹. Also, the “interaction with the human FGL1 protein” value in experiment [2] (SPR) is “interacts with the human FGL1 protein”. Moreover, in experiment [2] (SPR, ligand FGL1 protein), the Rmax is listed as 14.02 RU, the Note result is “Bound”, the kon was found to be 2130 M⁻¹ s⁻¹ and the koff is 0.0504 s⁻¹. Further, the Kd in experiment [2] (setting [4]) was found to be 23.2 µM. In addition, in experiment [2] (setting [5]), the Kd was ~10 µM. In addition, in experiment [3], the “interaction with the human LAG3 protein” value is recorded as “interacts with the human LAG3 protein”, the Rmax is listed as 124.7 RU, the Kd turned out to be 52.9 µM and the Note entry was “Bound”. Further, in experiment [3], the kon is 418 M⁻¹ s⁻¹ and the koff was found to be 0.0221 s⁻¹.
For the compound `CCCCCCOc1ccc(C(=O)O)cc1-c1cc(C(=O)NCCCCNC(=O)C(F)(F)F)ccc1OCCCCCC` [Compound 8], in experiment [1], the “interaction with the mouse LAG3 protein” value is on record as “interacts with the mouse LAG3 protein”, the Kd turned out to be 5.42 µM, the Rmax turned out to be 3.955 RU and the Note entry is “Bound”. In addition, in experiment [1], the kon worked out at 1870 M⁻¹ s⁻¹ and the koff stood at 0.0101 s⁻¹. Also, the “interaction with the human FGL1 protein” value in experiment [2] (SPR) is reported as “interacts with the human FGL1 protein”. Moreover, in experiment [2] (SPR, ligand FGL1 protein), the Rmax is 28.91 RU, the Note result is on record as “Bound”, the kon amounted to 1470 M⁻¹ s⁻¹ and the koff was 0.0231 s⁻¹. In experiment [2] (setting [4]), the Kd was determined as 15.7 µM. Further, in experiment [2] (setting [5]), the Kd is ~10 µM. In addition, in experiment [3], the “interaction with the human LAG3 protein” value is listed as “interacts with the human LAG3 protein”, the Rmax is recorded as 8.639 RU, the Kd amounted to 7.76 µM and the Note result is reported as “Bound”. For the same compound, in experiment [3], the kon was 446 M⁻¹ s⁻¹ and the koff is 0.00346 s⁻¹.
